The results in this text go back to PubChem BioAssay AID248 (DTP/NCI, 2004).

The subject of this assay is L1210 leukemia ip in BDF1 mice, survival T/C. Briefly: NCI In Vivo Anticancer Drug Screen. Data for tumor model L1210 Leukemia (intraperitoneal) in B6D2F1 (BDF1) mice. As to conditions: endpoint: mean survival time, higher = longer survival. The essentials:
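Transplantable tumor model; survival measured in treated vs vehicle control mice. Value = treated/control.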

Where [1] appears, read: dose: 100.0 mg/kg/injection, schedule: Q01DX001 (ip), vehicle: saline.
[2] abbreviates: dose: 200.0 mg/kg/injection, schedule: Q01DX001 (ip), vehicle: saline.
The mark [3] stands for this setting: dose: 400.0 mg/kg/injection, schedule: Q01DX001 (ip), vehicle: saline.
The mark [4] stands for this setting: dose: 50.0 mg/kg/injection, schedule: Q04DX003 (ip), vehicle: Klucel (hydroxypropylcellulose) (HPC).
Setting [5] is: dose: 100.0 mg/kg/injection, schedule: Q04DX003 (ip), vehicle: Klucel (hydroxypropylcellulose) (HPC).
Where [6] appears, read: dose: 200.0 mg/kg/injection, schedule: Q04DX003 (ip), vehicle: Klucel (hydroxypropylcellulose) (HPC).
Setting [7] is: dose: 100.0 mg/kg/injection, schedule: Q04DX003 (ip), vehicle: saline.
Where [8] appears, read: dose: 200.0 mg/kg/injection, schedule: Q04DX003 (ip), vehicle: saline.
Setting [9] is: dose: 400.0 mg/kg/injection, schedule: Q04DX003 (ip), vehicle: saline.
Where [10] appears, read: dose: 50.0 mg/kg/injection, schedule: Q01DX001 (ip), vehicle: carboxymethylcellulose (CMC).
The mark [11] stands for this setting: dose: 100.0 mg/kg/injection, schedule: Q01DX001 (ip), vehicle: carboxymethylcellulose (CMC).
The mark [12] stands for this setting: dose: 200.0 mg/kg/injection, schedule: Q01DX001 (ip), vehicle: carboxymethylcellulose (CMC).
Setting [13] is: dose: 400.0 mg/kg/injection, schedule: Q01DX001 (ip), vehicle: carboxymethylcellulose (CMC).
The mark [14] stands for this setting: dose: 100.0 mg/kg/injection, schedule: Q04DX002 (ip), vehicle: Klucel (hydroxypropylcellulose) (HPC).

Several values for one entry are separate records, joined by “and”; a condition that tells them apart may be missing. Equal values may be shown once. Toxic doses and inconclusive results are not listed.

Regarding `CCCCCCCCC1=C(CCCCCCC(=O)OC)[14CH2]1`, the T/C by setting is: (dose: 75.0 mg/kg/injection, schedule: Q04DX003 (ip), vehicle: saline) 100 % of control; (dose: 150.0 mg/kg/injection, schedule: Q04DX003 (ip), vehicle: saline) 93 % of control; (dose: 300.0 mg/kg/injection, schedule: Q04DX003 (ip), vehicle: saline) 90 % of control.
Consider `c1ccc(C2O[O][Sn]([c]3ccccc3)([c]3ccccc3)[O]2)cc1` (stereo unspecified), for which the T/C was 97 % of control (dose: 25.0 mg/kg/injection, schedule: Q04DX002 (ip), vehicle: gum acacia); 111 % of control (dose: 50.0 mg/kg/injection, schedule: Q04DX002 (ip), vehicle: gum acacia); 105 % of control and 86 % of control (dose: 100.0 mg/kg/injection, schedule: Q04DX002 (ip), vehicle: gum acacia).
On to `CC(C)(C)c1cc(OCC2CO2)ccc1OCC1CO1` (stereo unspecified), for which the T/C was 107 % of control under setting [1], 107 % of control under setting [2] and 95 % of control under setting [3].
On to `CCCCNC(=O)Nc1ccc(N(CC)CC)cc1`, for which the T/C (dose: 100.0 mg/kg/injection, schedule: Q01DX009 (ip), vehicle: saline with Tween-80) was 101 % of control; the T/C (dose: 100.0 mg/kg/injection, schedule: Q04DX003 (ip), vehicle: saline with Tween-80) is 94 % of control; the T/C (dose: 200.0 mg/kg/injection, schedule: Q01DX009 (ip), vehicle: saline with Tween-80) is 88 % of control; the T/C (dose: 200.0 mg/kg/injection, schedule: Q04DX003 (ip), vehicle: saline with Tween-80) was 97 % of control; the T/C (dose: 400.0 mg/kg/injection, schedule: Q01DX009 (ip), vehicle: saline with Tween-80) is 90 % of control; the T/C (dose: 400.0 mg/kg/injection, schedule: Q04DX003 (ip), vehicle: saline with Tween-80) is 100 % of control.
Consider `Cc1ccnc(NS(=O)(=O)c2ccc(N=Nc3nc4[nH]c(N)nc(=S)c4[nH]3)cc2)n1`, for which the T/C was 230 % of control (dose: 1.56 mg/kg/injection, schedule: Q01DX009 (ip), vehicle: Klucel (hydroxypropylcellulose) (HPC)); 94 % of control and 108 % of control (dose: 12.5 mg/kg/injection, schedule: Q01DX009 (ip), vehicle: Klucel (hydroxypropylcellulose) (HPC)); 162 % of control and 180 % of control (dose: 25.0 mg/kg/injection, schedule: Q04DX003 (ip), vehicle: Klucel (hydroxypropylcellulose) (HPC)); 173 % of control and 182 % of control and 192 % of control under setting [4].
`O=c1[nH]cnc2c1ncn2C1SC(CO)C(O)C1O` (stereo unspecified): the T/C reads like this: (dose: 100.0 mg/kg/injection, schedule: Q01DX005 (ip), vehicle: saline) 103 % of control; (dose: 200.0 mg/kg/injection, schedule: Q01DX005 (ip), vehicle: saline) 106 % of control.
With `ClCCCN1c2ccccc2CCc2ccccc21`, the T/C runs as follows: (dose: 100.0 mg/kg/injection, schedule: Q04DX003 (ip), vehicle: acetone) 100 % of control; (dose: 200.0 mg/kg/injection, schedule: Q04DX003 (ip), vehicle: acetone) 100 % of control; (dose: 400.0 mg/kg/injection, schedule: Q04DX003 (ip), vehicle: acetone) 103 % of control.
Consider `CCOC(=O)C(=O)Cc1sccc1[N+](=O)[O-]`, for which the T/C is 93 % of control (dose: 100.0 mg/kg/injection, schedule: Q01DX009 (ip), vehicle: Klucel (hydroxypropylcellulose) (HPC)); 94 % of control under setting [5]; 94 % of control (dose: 200.0 mg/kg/injection, schedule: Q01DX009 (ip), vehicle: Klucel (hydroxypropylcellulose) (HPC)); 92 % of control under setting [6]; 100 % of control (dose: 400.0 mg/kg/injection, schedule: Q01DX009 (ip), vehicle: Klucel (hydroxypropylcellulose) (HPC)); 100 % of control (dose: 400.0 mg/kg/injection, schedule: Q04DX003 (ip), vehicle: Klucel (hydroxypropylcellulose) (HPC)).
Turning to `CCCCCCCCCCCCCCCCCCNC(=S)NCCCCCCCCCCCCCCCC`, the T/C reads like this: (dose: 55.0 mg/kg/injection, schedule: Q01DX Z (ip), vehicle: methylcellulose (MC)) 123 % of control; (dose: 83.0 mg/kg/injection, schedule: Q01DX Z (ip), vehicle: methylcellulose (MC)) 106 % of control; (dose: 125.0 mg/kg/injection, schedule: Q01DX Z (ip), vehicle: methylcellulose (MC)) 104 % of control.
As to `O=P(O)(O)Cc1c(Cl)c(Cl)c(CP(=O)(O)O)c(Cl)c1Cl`, the T/C was 107 % of control under setting [1], 104 % of control under setting [2] and 104 % of control under setting [3].
For the molecule `NCCCCCCNC(=O)CCCCC(=O)NCCCCCCN`, the T/C runs as follows: (dose: 8.0 mg/kg/injection, schedule: Q01DX Z (ip), vehicle: water) 88 % of control; (dose: 16.0 mg/kg/injection, schedule: Q01DX Z (ip), vehicle: water) 86 % of control; (dose: 32.0 mg/kg/injection, schedule: Q01DX Z (ip), vehicle: water) 89 % of control; (dose: 64.0 mg/kg/injection, schedule: Q01DX Z (ip), vehicle: saline) 90 % of control; (dose: 64.0 mg/kg/injection, schedule: Q01DX Z (ip), vehicle: water) 91 % of control.
`O=C1c2ccccc2C(=O)N1CCOc1ccc([N+](=O)[O-])cc1Cl`: the T/C by setting is: under setting [4], 102 % of control; under setting [5], 101 % of control; under setting [6], 100 % of control.
Regarding `CCOC(=O)C(=CC(CC)C(=O)OCC)C(=O)OCC` (stereo unspecified) (tested in a mixture with another compound), the T/C was 93 % of control under setting [7], 93 % of control under setting [8] and 89 % of control under setting [9].
With `O=C1CC2(CC3(Cl)C(Cl)=C(Cl)C2(Cl)C3(Cl)Cl)C(=O)O1` (stereo unspecified), the T/C runs as follows: under setting [10], 100 % of control; under setting [11], 102 % of control; under setting [12], 102 % of control; under setting [13], 102 % of control.
Take `CN(Cc1ccccc1)C(=O)C(c1ccccc1)c1ccccc1`: the T/C by setting is: under setting [14], 89 % of control; (dose: 200.0 mg/kg/injection, schedule: Q04DX002 (ip), vehicle: Klucel (hydroxypropylcellulose) (HPC)) 86 % of control; (dose: 400.0 mg/kg/injection, schedule: Q04DX002 (ip), vehicle: Klucel (hydroxypropylcellulose) (HPC)) 96 % of control.
As to `CCCCCCCCCCCCC1CC2CCCCC2C2CCCCC12` (stereo unspecified), the T/C reads like this: (dose: 100.0 mg/kg/injection, schedule: Q01DX001 (ip), vehicle: saline with Tween-80) 95 % of control; (dose: 200.0 mg/kg/injection, schedule: Q01DX001 (ip), vehicle: saline with Tween-80) 97 % of control; (dose: 400.0 mg/kg/injection, schedule: Q01DX001 (ip), vehicle: saline with Tween-80) 89 % of control.
On to `O=C(CC1(c2ccccc2)C(=O)c2ccccc2C1=O)c1ccccc1`, for which the T/C under setting [11] was 94 % of control, the T/C under setting [12] is 91 % of control and the T/C under setting [13] is 94 % of control.
Consider `CN(C)C(=O)NN1CCCCCC1`, for which the T/C runs as follows: under setting [7], 96 % of control; under setting [8], 96 % of control; under setting [9], 100 % of control.
For `Nc1nc(N)c2nc(CNC3CCCCC3)cnc2n1`, the T/C was 95 % of control (dose: 20.0 mg/kg/injection, schedule: Q01DX009 (ip), vehicle: Klucel (hydroxypropylcellulose) (HPC)); 93 % of control (dose: 40.0 mg/kg/injection, schedule: Q01DX009 (ip), vehicle: Klucel (hydroxypropylcellulose) (HPC)); 97 % of control (dose: 80.0 mg/kg/injection, schedule: Q01DX009 (ip), vehicle: Klucel (hydroxypropylcellulose) (HPC)).
Consider `Nc1cc(F)c2c(c1)Cc1cc(F)ccc1-2`, for which the T/C is, setting by setting: under setting [10], 101 % of control; under setting [11], 109 % of control; under setting [12], 95 % of control.
For the molecule `C[N+]1(C)C2CC(O)CC1C1OC12` (stereo unspecified), the T/C runs as follows: (dose: 1.2 mg/kg/injection, schedule: Q01DX001 (ip), vehicle: saline) 95 % of control; (dose: 2.5 mg/kg/injection, schedule: Q01DX001 (ip), vehicle: saline) 97 % of control; (dose: 5.0 mg/kg/injection, schedule: Q01DX001 (ip), vehicle: saline) 100 % of control.
On to `O=[N+]([O-])c1ccc(N/N=C2\CCC3CC23)c([N+](=O)[O-])c1` (stereo unspecified), for which the T/C (dose: 25.0 mg/kg/injection, schedule: Q04DX002 (ip), vehicle: Klucel (hydroxypropylcellulose) (HPC)) was 105 % of control; the T/C (dose: 50.0 mg/kg/injection, schedule: Q04DX002 (ip), vehicle: Klucel (hydroxypropylcellulose) (HPC)) is 102 % of control; the T/C under setting [14] is 97 % of control.
As to `COc1ccc(-c2cc(C(=O)O)c3cccc(C(F)(F)F)c3n2)cc1`, the T/C under setting [7] is 90 % of control.
